Data on three compounds can be found in PubChem BioAssay (NCI).

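All cell lines were grown in 96-well plates and treated with compound for 48 hours. TGI denotes the concentration required for complete inhibition of growth.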

What all share (test): inhibition of tumour cell growth, NCI panel, 48 h
For experiment [1], the system named is KM20L2 colon.
The test system of experiment [2] is HOP-18 NSCLC.
For experiment [3], the system named is DMS 273 small cell lung.
Experiment [4] relates to SNB-78 CNS.
The test system of experiment [5] is 786-0 renal.

`O=[N+]([O-])c1ccccc1S(=O)(=O)c1ccccc1`: the TGI in experiment [1], in experiment [2] and in experiment [3] was more than 100 µM in each case. `O=S(OC12CC3CC(CC(C3)C1)C2)c1cc(Cl)cc(Cl)c1OCc1ccccc1` (stereo not given) returned a TGI in experiment [4] of more than 100 µM. Regarding `COc1cc2oc(=O)cc(C)c2cc1O`, the TGI in experiment [5] is more than 100 µM.
